Source: the NIST ThermoML archive (doi:10.1021/je0504459)

Assay: xn = mol fraction of the nth substance listed
Conditions: 101 kPa, Liquid; for speed of sound: Sing-around technique in a fixed-path interferometer

ClC(Cl)Cl [trichloromethane] + CCCCCCCO
Conditions	kinematic viscosity, 303.15 K [m2/s]	kinematic viscosity, 313.15 K [m2/s]	mass density, 303.15 K [kg/m3]	mass density, 313.15 K [kg/m3]	speed of sound, 303.15 K [m/s]	speed of sound, 313.15 K [m/s]
x1 = 0.0487	5.58e-06	4.17e-06	833.37	825.81	1296	1262
x1 = 0.1002	4.98e-06	3.74e-06	853.69	845.75	1277	1244
x1 = 0.1498	4.41e-06	3.34e-06	874.2	865.8	1260	1226
x1 = 0.2006	3.86e-06	2.95e-06	896.15	887.32	1241	1207
x1 = 0.2516	3.38e-06	2.61e-06	919.27	909.96	1222	1187
x1 = 0.3003	2.93e-06	2.29e-06	942.39	932.57	1204	1168
x1 = 0.3538	2.52e-06	1.99e-06	969.09	958.73	1183	1147
x1 = 0.4003	2.18e-06	1.75e-06	993.52	982.67	1165	1129
x1 = 0.4466	1.89e-06	1.54e-06	1019.1	1007.69	1147	1111
x1 = 0.5001	1.61e-06	1.32e-06	1050.23	1038.22	1126	1091
x1 = 0.5517	1.35e-06	1.13e-06	1082.09	1069.43	1107	1072
x1 = 0.6002	1.17e-06	1e-06	1113.83	1100.51	1089	1054
x1 = 0.6539	9.76e-07	8.45e-07	1151.17	1137.19	1070	1035
x1 = 0.6994	8.51e-07	7.41e-07	1184.84	1170.19	1054	1019
x1 = 0.7449	7.4e-07	6.59e-07	1220.55	1205.18	1039	1004
x1 = 0.8	6.33e-07	5.69e-07	1266.83	1250.5	1022	987
x1 = 0.8465	5.58e-07	5.09e-07	1308.67	1291.64	1008	972
x1 = 0.9003	4.81e-07	4.45e-07	1360.81	1342.82	993	957
x1 = 0.9521	4.2e-07	3.88e-07	1414.86	1396.16	979	943
x1 = 1	3.63e-07	3.39e-07	1469.21	1449.74	969	934
